According to publication PMC5698418 (Nature Communications, 2017):

Legend:
[1] = target: T1, HDAC6 (Homo sapiens, UniProt Q9UBN7); experiment: Biochemical HDAC assay (BPS Bioscience), HDAC6; details: 25 µM
T1 construct: purchased BPS Bioscience (San Diego, CA), contract assay service

[2] = test system: acetyl-H3K9 in dentate gyrus; experiment: Acetyl-H3K9 immunohistochemistry in dentate gyrus after intraperitoneal injection; format: in vivo, mouse; details: 30 mg kg−1 i.p., 3 h, home cage
Protocol: Male mice (C57BL/6 strain) were received as 6-weeks old and habituated to their home cage as trios for 2 weeks before conducting the experiments. During the habituation time period, mice were kept on a light–dark cycle with minimal disruption and unrestricted access to food and water. On experiment day, mice from the same cage were taken and randomly subjected to intraperitoneal injection of vehicle (25% Kolliphor EL (Sigma-Aldrich, C5135), 10% DMSO) or AK-7 (30 mg kg^−1) solution and immediately placed back in their home cage or transferred to a novel environment. […]
The following approach was adopted to quantify the number of Arc-positive cell bodies and average acetyl-H3K9 immunostaining pixel intensity in dentate gyrus. First, complete dentate gyrus overlapping grayscale images of DAPI fluorescence and Arc or acetyl-H3K9 immunostaining were collected using a ×20 objective and Nikon Eclipse 90i upright microscope equipped with a motorized stage and image stitching capability. Second, the boundary of the dentate gyrus based on the DAPI fluorescence was determined in each image set with the ImageJ wand tool. Finally, this information was used for image segmentation and quantification of Arc-positive cell bodies or average acetyl-H3K9 immunostaining pixel intensity within each dentate gyrus images. […]

[3] = test system: GluA2 mRNA; experiment: GluA2 mRNA by RT-qPCR in cortical neurons; format: cell-based, mouse; details: BDNF plus AK-7 16.7 µM vs BDNF plus vehicle, 6 h
Protocol: After experimental treatment, total RNA was isolated from primary cortical neuron cultures using the TRIzol method (Invitrogen). The concentration of total RNA was measured using a NanoDrop 1000 spectrophotometer (Thermo Fisher Scientific, Rockford, IL) and first-strand complementary DNA (cDNA) was synthesized using the iScript cDNA Synthesis Kit (Bio-Rad, Hercules, CA). Real-time PCRs were performed using gene-specific primers and monitored by quantification of SYBR Green I fluorescence using a Bio-Rad CFX96 Real-Time Detection System. Expression was normalized against Gapdh expression. The relative quantification from at least three biological replicates was performed using the comparative cycle threshold (∆∆CT) method.
Primers for real-time reverse transcription PCR experiments were: Arc, 5′-[…]-3′ (forward) and 5′-[…]-3′ (reverse); Map2, 5′-[…]-3′ (forward) and 5′-[…]-3′ (reverse); GluA1, 5′-[…]-3′ (forward) and 5′-[…]-3′ (reverse); GluA2, 5′-[…]-3′ (forward) and 5′-[…]-3′ (reverse); Gapdh, 5′-[…]-3′ (forward) and 5′-[…]-3′ (reverse).
Supplementary Fig. 6. […] Bars represent mean fold-change and error bars indicate range from five biological replicates.

[4] = parameters: method as in PMID 21370928, PMID 23200855; details: ref [34],[42]; cited from earlier work

T1 sequence (Q9UBN7 whole entry): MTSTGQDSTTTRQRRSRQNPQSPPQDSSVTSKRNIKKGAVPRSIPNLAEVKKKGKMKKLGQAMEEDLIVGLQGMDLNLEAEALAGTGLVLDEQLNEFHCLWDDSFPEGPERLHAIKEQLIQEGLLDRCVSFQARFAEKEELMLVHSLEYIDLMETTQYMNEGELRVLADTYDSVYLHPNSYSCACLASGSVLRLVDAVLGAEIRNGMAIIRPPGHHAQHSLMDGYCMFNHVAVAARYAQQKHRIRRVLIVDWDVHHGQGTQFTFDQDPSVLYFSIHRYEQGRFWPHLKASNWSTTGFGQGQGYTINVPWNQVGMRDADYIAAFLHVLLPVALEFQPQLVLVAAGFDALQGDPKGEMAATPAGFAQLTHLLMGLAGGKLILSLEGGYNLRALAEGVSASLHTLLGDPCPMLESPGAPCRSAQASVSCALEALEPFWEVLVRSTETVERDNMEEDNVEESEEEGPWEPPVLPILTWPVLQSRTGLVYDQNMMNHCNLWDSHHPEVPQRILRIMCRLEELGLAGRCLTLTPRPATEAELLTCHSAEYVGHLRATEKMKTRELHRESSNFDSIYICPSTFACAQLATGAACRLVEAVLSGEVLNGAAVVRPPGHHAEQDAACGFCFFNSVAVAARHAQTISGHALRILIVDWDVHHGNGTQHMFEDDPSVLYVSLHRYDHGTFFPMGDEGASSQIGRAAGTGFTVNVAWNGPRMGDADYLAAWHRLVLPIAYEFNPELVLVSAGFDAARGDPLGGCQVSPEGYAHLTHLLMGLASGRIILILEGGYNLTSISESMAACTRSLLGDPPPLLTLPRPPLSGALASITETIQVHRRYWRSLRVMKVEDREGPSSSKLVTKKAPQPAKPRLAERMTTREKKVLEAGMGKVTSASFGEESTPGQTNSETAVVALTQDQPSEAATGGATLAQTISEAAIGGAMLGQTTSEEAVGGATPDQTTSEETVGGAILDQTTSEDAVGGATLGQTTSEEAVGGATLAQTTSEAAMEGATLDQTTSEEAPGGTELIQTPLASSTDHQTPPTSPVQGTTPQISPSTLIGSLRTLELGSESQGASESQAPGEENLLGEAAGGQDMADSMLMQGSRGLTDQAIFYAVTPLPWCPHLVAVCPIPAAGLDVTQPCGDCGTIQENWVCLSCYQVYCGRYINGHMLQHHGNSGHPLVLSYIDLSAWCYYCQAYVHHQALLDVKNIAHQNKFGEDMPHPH

Structure (SMILES): O=C(Nc1cccc(Br)c1)c1cccc(S(=O)(=O)N2CCCCCC2)c1 [AK-7]
- inhibitory activity toward HDAC6 [1]: failed to show any inhibitory activity
- acetyl-H3K9 immunofluorescence staining intensity in dentate gyrus vs vehicle [2]: small but statistically significant increase
- GluA2 mRNA expression [3]: does not affect
- blood–brain barrier crossing [4]: can efficiently cross the blood–brain barrier
